Source: patent US9060952B2, “Synergistic preservative blends” (LONZA LTD., priority 2008, dated 2015)
Where two headings read alike, the source gives them in different places. Blank lines part the entries; values can stand above or below the compound they belong to.

What was measured:
Experiment in all cases: Minimum inhibitory concentration (MIC), broth dilution
[1] = system: S. aureus ATCC 6538; design: species or system Staphylococcus aureus; conditions: for MIC: Staphylococcus aureus
Procedure: (§1) Minimum inhibitory concentrations (MIC) were determined for individual components and binary formulations as follows. Individual bacterial suspensions of S. aureus (gram positive), E. coli and P. aeruginosa (both gram negative) and individual fungal suspensions of C. albicans and A. niger were prepared as described in Example 1. Each individual suspension was standardized with PBDW to yield a ˜10^8 CFU/mL or ˜10^7 cells/mL for the individual bacteria and fungi, respectively.
(§2) The individual components and binary formulations were diluted in either DI water or propylene glycol (as appropriate for solubility) to yield a 10,000 ppm total starting active solution. From the 10,000 ppm solution, a 1:9 dilution was made in sterile Nutrient Broth to yield a 1,000 ppm active solution. Five mL of the 1,000 ppm dilution was transferred to five mL of sterile Nutrient Broth (NB) to yield a 500 ppm active solution. This dilution scheme was repeated down to 3.90 ppm active. The same dilutions were made in sterile Sabouraud Dextrose Broth (SDB) for the fungal MIC testing. The series of nine active solutions (3.9 ppm˜1000 ppm) was prepared for each of the five microorganisms to be tested.
(§3) From the E. coli suspension, 0.1 mL was added to each of the nine, 5-mL active solutions in NB. Each tube was mixed thoroughly. This was repeated for each of the bacterial suspensions. Similarly, 0.1 mL of the C. albicans suspension was added to each of the nine, 5-mL active solutions in SDB. This was repeated with A. niger in a separate set of dilutions. Each tube was mixed thoroughly. Controls were prepared for each organism by inoculating 5 mL of NB or SDB, as appropriate. All three sets of bacterial tubes were incubated at 35° C. for 48 hours and the two sets of fungal tubes were incubated at 30° C. for 72 and 120 hours. At the end of the incubation period, the tubes were mixed and visually inspected for turbidity compared to the control. The lowest concentration with a lack of turbidity was recorded as the Minimum Inhibitory Concentration (MIC).
(§4) The synergism value is (QA/Qa+QB/Qb). QA is the concentration of component A in the mixture, Qa is the concentration of component A applied singly, QB is the concentration of component B in the mixture, Qb is the concentration of component B applied singly. When the synergism value is less than one, the mixture is synergistic. Values for (QA/Qa+QB/Qb) of 1 and greater than 1 represent an additive effect and an antagonistic effect, respectively.

[2] = system: P. aeruginosa ATCC 9027; design: species or system Pseudomonas aeruginosa; conditions: for MIC: Pseudomonas aeruginosa
Procedure: as §1, §2, §3, §4

[3] = system: E. coli ATCC 8739; design: species or system Escherichia coli; conditions: for MIC: Escherichia coli
Procedure: as §1, §2, §3, §4

[4] = system: A. niger ATCC 16404; design: species or system Aspergillus niger
Procedure: as §1, §2
(§5) From the E. coli suspension, 0.1 mL was added to each of the nine, 5-mL active solutions in NB. […] The lowest concentration with a lack of turbidity was recorded as the Minimum Inhibitory Concentration (MIC). […]

[5] = system: C. albicans ATCC 10231; design: species or system Candida albicans
Procedure: as §1, §2, §5

SMILES: Cn1sccc1=O [Methylisothiazolinone]
Qa, concentration of component A applied singly (MIC) ([1]; S. aureus): 250 ppm | Qa, concentration of component A applied singly (MIC) ([2]; P. aeruginosa): 62.5 ppm | Qa, concentration of component A applied singly (MIC) ([3]; E. coli): 62.5 ppm | Qa, concentration of component A applied singly (MIC) [4]: 500 ppm | Qa, concentration of component A applied singly (MIC) [5]: 250 ppm

MIC ([1]; ATCC6538, S. aureus, read-out: Qa, concentration of component A applied singly (MIC)): > 1000 µg/mL | MIC ([2]; ATCC9027, P. aeruginosa, read-out: Qa, concentration of component A applied singly (MIC)): > 1000 µg/mL | MIC ([3]; ATCC8739, E. coli, read-out: Qa, concentration of component A applied singly (MIC)): > 1000 µg/mL
SMILES: CCCCCCCCCCCO [Undecanol]

Qa, concentration of component A applied singly (MIC) ([1]; S. aureus): >1000 ppm | Qa, concentration of component A applied singly (MIC) ([2]; P. aeruginosa): >1000 ppm | Qa, concentration of component A applied singly (MIC) ([3]; E. coli): 1000 ppm
SMILES: CCCCCCC(O)CO (stereo not shown) [Caprylyl Glycol]

SMILES: CC(=O)C1C(=O)C=C(C)OC1=O (stereo not shown) [Dehydroacetic acid]
MIC ([1]; ATCC6538, read-out: Qb, concentration of component B applied singly (MIC)): 500 µg/mL | MIC ([2]; ATCC9027, read-out: Qb, concentration of component B applied singly (MIC)): 500 µg/mL | MIC ([3]; ATCC8739, read-out: Qb, concentration of component B applied singly (MIC)): 500 µg/mL

Qb, concentration of component B applied singly (MIC) ([1]; S. aureus): 62.5 ppm | Qb, concentration of component B applied singly (MIC) ([2]; P. aeruginosa): 62.5 ppm | Qb, concentration of component B applied singly (MIC) ([3]; E. coli): 62.5 ppm | Qb, concentration of component B applied singly (MIC) [4]: 62.5 ppm | Qb, concentration of component B applied singly (MIC) [5]: 62.5 ppm
SMILES: Cc1cc(CC(C)CC(C)(C)C)n(O)c(=O)c1.NCCO (stereo not shown) [Piroctone Olamine]
